Test results as given in patent publication US8148391B2 (Cephalon, Inc., priority 2006, dated 2012).
pIC50: −log10 of the molar value. Read-outs that look alike come from different tables or passages of the source. Blank lines part the entries; values can stand above or below the molecule they belong to.

Assays:
[1] = molecular target: T1, baculovirus-expressed ALK (Homo sapiens, UniProt Q9UM73); test: ALK Kinase Assay (ELISA-type, time-resolved fluorescence); format: biochemical
T1 construct: host or cells: baculovirus expression system
T1 sequence (Q9UM73 19-1620): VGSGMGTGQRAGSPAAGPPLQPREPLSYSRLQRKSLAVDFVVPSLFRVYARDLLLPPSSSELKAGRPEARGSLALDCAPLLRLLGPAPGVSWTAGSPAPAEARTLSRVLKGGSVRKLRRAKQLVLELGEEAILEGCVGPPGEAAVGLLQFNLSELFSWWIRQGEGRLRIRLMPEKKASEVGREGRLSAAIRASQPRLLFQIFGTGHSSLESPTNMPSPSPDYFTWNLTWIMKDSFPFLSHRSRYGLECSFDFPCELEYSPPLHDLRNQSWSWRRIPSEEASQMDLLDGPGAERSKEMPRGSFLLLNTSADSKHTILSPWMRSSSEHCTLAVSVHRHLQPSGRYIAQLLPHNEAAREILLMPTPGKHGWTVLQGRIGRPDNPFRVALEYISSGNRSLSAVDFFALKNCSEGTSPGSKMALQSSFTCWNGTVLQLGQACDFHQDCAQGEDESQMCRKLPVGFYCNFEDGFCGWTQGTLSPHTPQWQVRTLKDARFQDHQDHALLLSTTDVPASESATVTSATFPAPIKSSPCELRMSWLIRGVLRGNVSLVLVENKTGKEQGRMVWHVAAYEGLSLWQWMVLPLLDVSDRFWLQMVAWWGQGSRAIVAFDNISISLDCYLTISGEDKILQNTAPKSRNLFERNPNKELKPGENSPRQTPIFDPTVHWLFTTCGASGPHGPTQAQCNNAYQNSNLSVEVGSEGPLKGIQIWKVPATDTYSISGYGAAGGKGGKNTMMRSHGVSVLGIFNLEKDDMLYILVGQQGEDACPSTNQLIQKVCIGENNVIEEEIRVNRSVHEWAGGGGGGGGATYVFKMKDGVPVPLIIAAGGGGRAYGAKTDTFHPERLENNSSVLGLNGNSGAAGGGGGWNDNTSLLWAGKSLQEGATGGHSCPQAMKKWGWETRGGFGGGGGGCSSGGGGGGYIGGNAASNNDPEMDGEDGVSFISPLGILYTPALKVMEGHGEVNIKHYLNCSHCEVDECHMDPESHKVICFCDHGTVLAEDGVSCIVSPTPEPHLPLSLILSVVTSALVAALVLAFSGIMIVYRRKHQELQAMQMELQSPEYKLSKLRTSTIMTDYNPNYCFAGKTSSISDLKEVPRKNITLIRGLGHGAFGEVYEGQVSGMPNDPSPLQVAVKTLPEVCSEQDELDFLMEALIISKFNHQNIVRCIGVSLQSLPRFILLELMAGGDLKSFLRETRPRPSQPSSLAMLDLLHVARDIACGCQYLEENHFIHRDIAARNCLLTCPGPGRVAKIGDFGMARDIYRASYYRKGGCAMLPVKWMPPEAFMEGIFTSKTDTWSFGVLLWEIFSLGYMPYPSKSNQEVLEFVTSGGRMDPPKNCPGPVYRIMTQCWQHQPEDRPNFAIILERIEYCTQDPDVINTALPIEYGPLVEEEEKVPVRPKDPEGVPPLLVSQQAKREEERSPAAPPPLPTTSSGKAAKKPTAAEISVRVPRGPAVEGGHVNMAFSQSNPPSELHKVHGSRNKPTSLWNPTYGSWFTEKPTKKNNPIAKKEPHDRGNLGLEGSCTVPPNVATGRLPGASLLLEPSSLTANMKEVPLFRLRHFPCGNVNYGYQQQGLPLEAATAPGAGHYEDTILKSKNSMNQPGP
In short: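 Plates coated with phospholipase C-γ substrate (10 μg/mL in TBS); reaction started with 30 ng/ml ALK and run 15 min at 37° C. Phosphorylated substrate detected with Eu-N1-labeled PT66 antibody. IC50 from sigmoidal variable-slope fit of percent inhibition vs log concentration.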

[2] = molecular target: T2, c-Met (cytoplasmic domain) (Homo sapiens, UniProt P08581); test: c-Met Kinase Assay (same methods as for ALK, with modifications); format: biochemical
T2 construct: 10 ng/mL c-Met (cytoplasmic domain, Invitrogen Corporation #PV3143); purchased Invitrogen Corporation PV3143
T2 sequence (P08581 956-1390 limits assumed): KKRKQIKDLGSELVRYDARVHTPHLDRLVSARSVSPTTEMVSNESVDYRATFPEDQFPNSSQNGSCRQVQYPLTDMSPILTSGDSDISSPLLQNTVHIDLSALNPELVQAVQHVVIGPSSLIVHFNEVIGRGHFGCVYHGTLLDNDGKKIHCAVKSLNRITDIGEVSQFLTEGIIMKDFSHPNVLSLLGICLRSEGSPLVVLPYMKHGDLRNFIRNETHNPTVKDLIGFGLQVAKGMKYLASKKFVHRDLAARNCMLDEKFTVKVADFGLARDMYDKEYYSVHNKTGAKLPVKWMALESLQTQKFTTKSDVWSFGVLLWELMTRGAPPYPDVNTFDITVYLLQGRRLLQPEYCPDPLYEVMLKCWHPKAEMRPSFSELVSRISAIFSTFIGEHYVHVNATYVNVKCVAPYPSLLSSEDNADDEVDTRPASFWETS
In short: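 Plates were coated with phospholipase C-γ substrate (10 μg/mL) in TBS, and the reaction was started with 10 ng/mL c-Met cytoplasmic domain and run 15 min at 37 °C. Phosphoproduct was detected with Eu-N1-labelled PT66 antibody. IC50 came from a variable-slope sigmoidal fit of percent inhibition vs log concentration.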

[3] = 1 μM ATP (Km level), read-out: ALK Activity (ALK Kinase Inhibition, IC50)
[4] = 1 μM ATP (Km level), read-out: cMet Activity (c-Met Kinase Inhibition, IC50)
[5] = ALK kinase inhibition, 1 μM ATP (Km level), read-out: ALK Activity
[6] = c-Met kinase inhibition, 1 μM ATP (Km level), read-out: cMet Activity
[7] = 1 μM ATP (Km level), 30 ng/ml ALK, 37° C., 15 minutes, read-out: ALK Activity (ALK kinase inhibition, IC50 class)
[8] = 1 μM ATP (Km level), 10 ng/mL c-Met, read-out: cMet Activity (c-Met kinase inhibition, IC50 class)
[9] = ALK kinase inhibition, 1 μM ATP, read-out: ALK Activity
[10] = c-Met kinase inhibition, 1 μM ATP, read-out: cMet Activity

pIC50 [1, 3]: 6.00 to 7.00
pIC50 [2, 4]: 6.00 to 7.00
Structure (SMILES): COCCN1CCc2ccc(Nc3ncc(Cl)c(Nc4ccccc4-c4nnc(C)s4)n3)cc2CC1 [Example 974, 5-Chloro-N*2*-[3-(2-methoxy-ethyl)-2,3,4,5-tetrahydro-1H-benzo[d]azepin-7-yl]-N*4*-[2-(5-methyl-[1,3,4]thiadiazol-2-yl)-phenyl]-pyrimidine-2,4-diamine]

pIC50 [1, 5]: > 7.00
pIC50 [2, 6]: > 7.00
Structure (SMILES): CNC(=O)c1ccccc1Nc1nc(Nc2ccc3c(c2)CNCCN3C)ncc1Cl [Example 420, 2-[5-Chloro-2-(1-methyl-2,3,4,5-tetrahydro-1H-benzo[e][1,4]diazepin-7-ylamino)-pyrimidin-4-ylamino]-N-methylbenzamide]

pIC50 [1, 5]: > 7.00
pIC50 [2, 6]: > 7.00
Structure (SMILES): CNS(=O)(=O)c1ccccc1Nc1nc(Nc2ccc3c(c2)CCCC(=O)N3)ncc1Cl [Example 5, 2-[5-Chloro-2-(2-oxo-2,3,4,5-tetrahydro-1H-benzo[b]azepin-7-ylamino)-pyrimidin-4-ylamino]-N-methyl-benzenesulfonamide]

pIC50 [1, 7]: < 5.00
pIC50 [2, 8]: < 5.00
Structure (SMILES): CCNC(=O)c1ccccc1Nc1nc(Nc2c(OC)ccc3c2CC(=O)N(CC)CC3)ncc1Cl [Example 1134, 2-[5-Chloro-2-(3-ethyl-7-methoxy-4-oxo-2,3,4,5-tetrahydro-1H-benzo[d]azepin-6-ylamino)-pyrimidin-4-ylamino]-N-ethyl-benzamide]

pIC50 [1, 5]: > 7.00
pIC50 [2, 6]: 6.00 to 7.00
Structure (SMILES): CS(=O)(=O)N[C@@H]1CCCC[C@H]1Nc1nc(Nc2ccc3c(c2)CCN(C[C@@H](O)C(F)(F)F)CC3)ncc1Cl [Example 449, N-((1R,2R)-2-{5-Chloro-2-[3-((R)-3,3,3-trifluoro-2-hydroxy-propyl)-2,3,4,5-tetrahydro-1H-benzo[d]azepin-7-ylamino]-pyrimidin-4-ylamino}-cyclohexyl)-methanesulfonamide]

pIC50 [1, 9]: 6.00 to 7.00
pIC50 [2, 10]: > 7.00
Structure (SMILES): CCN1CCNc2cc(Nc3ncc(Cl)c(Nc4c(F)cccc4C(=O)NC)n3)ccc2C1=O [Example 1454, 2-[5-Chloro-2-(4-ethyl-5-oxo-2,3,4,5-tetrahydro-1H-benzo[e][1,4]diazepin-8-ylamino)-pyrimidin-4-ylamino]-3-fluoro-N-methyl-benzamide]

Structure (SMILES): COCCN1C2CCC1c1cc(Nc3ncc(Cl)c(N[C@@H]4CCCC[C@H]4NS(C)(=O)=O)n3)ccc1C2 (stereo partly drawn) [Example 77, N-((1R,2R)-2-{5-Chloro-2-[12-(2-methoxy-ethyl)-12-aza-tricyclo[7.2.1.0*2,7*]dodeca-2(7),3,5-trien-4-ylamino]-pyrimidin-4-ylamino}-cyclohexyl)-methanesulfonamide]
pIC50 [1, 5]: > 7.00
pIC50 [2, 6]: 6.00 to 7.00

pIC50 [1, 7]: > 7.00
pIC50 [2, 8]: < 5.00
Structure (SMILES): CCN1C(=O)C(N)CCc2c1ccc(Nc1ncc(Cl)c(Nc3ccccc3S(=O)(=O)C(C)C)n1)c2OC (stereo not shown) [Example 1337, 3-Amino-7-{5-chloro-4-[2-(propane-2-sulfonyl)-phenylamino]-pyrimidin-2-ylamino}-1-ethyl-6-methoxy-1,3,4,5-tetrahydro-benzo[b]azepin-2-one]

pIC50 [1, 5]: 6.00 to 7.00
pIC50 [2, 6]: 5.00 to 6.00
Structure (SMILES): CC1CNC(=O)c2c(Nc3ncc(Cl)c(N[C@@H]4CCCC[C@H]4NS(C)(=O)=O)n3)cccc2N1C(=O)C(F)(F)F (stereo partly drawn) [Example 231, N-((1R,2R)-2-{5-Chloro-2-[2-methyl-5-oxo-1-(2,2,2-trifluoro-acetyl)-2,3,4,5-tetrahydro-1H-benzo[e][1,4]diazepin-6-ylamino]-pyrimidin-4-ylamino}-cyclohexyl)-methanesulfonamide]

pIC50 [1, 9]: > 7.00
pIC50 [2, 10]: > 7.00
Structure (SMILES): CNC(=O)c1ccccc1Nc1nc(Nc2ccc3c(c2)NC(=O)CN(CCOC)C3)ncc1Cl [Example 1864, 2-{5-Chloro-2-[4-(2-methoxy-ethyl)-2-oxo-2,3,4,5-tetrahydro-1H-benzo[e][1,4]diazepin-8-ylamino]-pyrimidin-4-ylamino}-N-methyl-benzamide]

pIC50 [1, 9]: < 5.00
pIC50 [2, 10]: 5.00 to 6.00
Structure (SMILES): CNC(=O)c1ccccc1N(C)c1nc(Nc2ccc3c(c2)CCOC(=O)N3C)ncc1F [Example 1765, 2-{[5-Fluoro-2-(5-methyl-6-oxo-5,6,8,9-tetrahydro-7-oxa-5-aza-benzocyclohepten-2-ylamino)-pyrimidin-4-yl]-methyl-amino}-N-methyl-benzamide]

pIC50 [1, 9]: 6.00 to 7.00
pIC50 [2, 10]: 5.00 to 6.00
Structure (SMILES): COc1cc2c(cc1Nc1ncc(C(F)(F)F)c(Nc3ccc(N4CCOCC4)cc3OC)n1)N(C)C(=O)OCC2 [Example 1518, 2-Methoxy-3-[4-(2-methoxy-4-morpholin-4-yl-phenylamino)-5-trifluoromethyl-pyrimidin-2-ylamino]-5-methyl-8,9-dihydro-5H-7-oxa-5-aza-benzocyclohepten-6-one]

pIC50 [1, 3]: > 7.00
pIC50 [2, 4]: > 7.00
Structure (SMILES): CCN1CCN(CC)c2cc(Nc3ncc(Cl)c(Nc4c(F)cccc4C(=O)NC)n3)ccc2C1 [Example 716, 2-[5-Chloro-2-(1,4-diethyl-2,3,4,5-tetrahydro-1H-1,4-benzodiazepin-8-ylamino)-pyrimidin-4-ylamino]-3-fluoro-N-methyl-benzamide]

pIC50 [1, 3]: > 7.00
pIC50 [2, 4]: < 5.00
Structure (SMILES): COc1cc(N2CCOCC2)ccc1Nc1nc(Nc2ccc3c(c2OC)CCC(N2CCOCC2)CC3)ncc1Cl (stereo not shown) [Example 894, 5-Chloro-N*4*-(2-methoxy-4-morpholin-4-yl-phenyl)-N*2*-(1-methoxy-7-morpholin-4-yl-6,7,8,9-tetrahydro-5H-benzocyclohepten-2-yl)-pyrimidine-2,4-diamine]

pIC50 [1, 3]: > 7.00
pIC50 [2, 4]: 5.00 to 6.00
Structure (SMILES): COc1cc2c(cc1Nc1ncc(Cl)c(Nc3ccccc3S(=O)(=O)N(C)C)n1)CCN(CC1COCCO1)CC2 (stereo not shown) [Example 637, 2-[5-Chloro-2-(3-[1,4]dioxan-2-ylmethyl-8-methoxy-2,3,4,5-tetrahydro-1H-benzo[d]azepin-7-ylamino)-pyrimidin-4-ylamino]-N,N-dimethyl-benzenesulfonamide]

pIC50 [1, 7]: > 7.00
pIC50 [2, 8]: < 5.00
Structure (SMILES): COc1cc2c(cc1Nc1ncc(Cl)c(Nc3ccccc3OC)n1)CCN(CCS(C)(=O)=O)CC2 [Example 1132, 5-Chloro-N*2*-[3-(2-methanesulfonyl-ethyl)-8-methoxy-2,3,4,5-tetrahydro-1H-benzo[d]azepin-7-yl]-N*4*-(2-methoxy-phenyl)-pyrimidine-2,4-diamine]

pIC50 [1, 9]: > 7.00
pIC50 [2, 10]: 5.00 to 6.00
Structure (SMILES): CN([C@@H]1CCCC[C@H]1Nc1nc(Nc2ccc3c(c2)CCC(N2CCOCC2)CC3)ncc1Cl)S(C)(=O)=O (mixture of isomers) [Example 1681, N-{(1R,2R)-2-[5-Chloro-2-(7-morpholin-4-yl-6,7,8,9-tetrahydro-5H-benzocyclohepten-2-ylamino)-pyrimidin-4-ylamino]-cyclohexyl}-N-methyl-methanesulfonamide]

Structure (SMILES): C#CCN1CC2CCC(C1)c1cc(Nc3ncc(Cl)c(Nc4ccccc4C(=O)NC)n3)ccc12 (stereo not shown) [Example 279, 2-[5-Chloro-2-(10-prop-2-ynyl-10-aza-tricyclo[6.3.2.0*2,7*]trideca-2,4,6-trien-4-ylamino)-pyrimidin-4-ylamino]-N-methyl-benzamide]
pIC50 [1, 5]: > 7.00
pIC50 [2, 6]: > 7.00

pIC50 [1, 5]: > 7.00
pIC50 [2, 6]: < 5.00
Structure (SMILES): COCCN1C(=O)CCCc2c1ccc(Nc1ncc(Cl)c(N[C@@H]3[C@H](C(N)=O)[C@H]4C=C[C@@H]3C4)n1)c2OC [Example 128, (2-exo,3-exo)-3-{5-Chloro-2-[6-methoxy-1-(2-methoxy-ethyl)-2-oxo-2,3,4,5-tetrahydro-1H-benzo[b]azepin-7-ylamino]-pyrimidin-4-ylamino}-bicyclo[2.2.1]hept-5-ene-2-carboxylic acid amide]

pIC50 [1, 3]: > 7.00
pIC50 [2, 4]: 6.00 to 7.00
Structure (SMILES): COc1ccc(Nc2nc(Nc3ccc4c(c3)CCN(CC3COCCO3)CC4)ncc2Cl)c(-n2cccn2)c1 (stereo not shown) [Example 642, 5-Chloro-N*2*-(3-[1,4]dioxan-2-ylmethyl-2,3,4,5-tetrahydro-1H-benzo[d]azepin-7-yl)-N*4*-(4-methoxy-2-pyrazol-1-yl-phenyl)-pyrimidine-2,4-diamine]

pIC50 [1, 5]: > 7.00
pIC50 [2, 6]: 5.00 to 6.00
Structure (SMILES): COCCN1CCc2ccc(Nc3ncc(Cl)c(Nc4ccccc4OC)n3)cc2CC1 [Example 145, 5-Chloro-N*2*-[3-(2-methoxy-ethyl)-2,3,4,5-tetrahydro-1H-benzo[d]azepin-7-yl]-N*4*-(2-methoxy-phenyl)-pyrimidine-2,4-diamine]

pIC50 [1, 9]: 6.00 to 7.00
pIC50 [2, 10]: < 5.00
Structure (SMILES): COc1cc(N2CCOCC2)ccc1Nc1nc(Nc2ccc3c(c2)N(C(C)C)CCCC3(C)C)ncc1Cl [Example 1629, 5-Chloro-N*2*-(1-isopropyl-5,5-dimethyl-2,3,4,5-tetrahydro-1H-benzo[b]azepin-8-yl)-N*4*-(2-methoxy-4-morpholin-4-yl-phenyl)-pyrimidine-2,4-diamine]

pIC50 [1, 7]: > 7.00
pIC50 [2, 8]: < 5.00
Structure (SMILES): COc1cc2c(cc1Nc1ncc(Cl)c(Nc3ccc(N4CCOCC4)cc3OC)n1)CCN(CC(=O)N1CCCC1)CC2 [Example 1155, 2-{7-[5-Chloro-4-(2-methoxy-4-morpholin-4-yl-phenylamino)-pyrimidin-2-ylamino]-8-methoxy-1,2,4,5-tetrahydro-benzo[d]azepin-3-yl}-1-pyrrolidin-1-yl-ethanone]
